The values below come from patent publication US9321756B2, “Azole compounds as PIM inhibitors” (priority 2011, dated 2016).

The structures appear in SMILES notation. Where two headings read alike, the source gives them in different places. Bounds are passed on as bounds.

Experiment [1] deals with Pim-2 stably transfected U2OS human osteogenic sarcoma line. In words: Pim cell assay U2OS (phospho-BAD normalized against total BAD), Pim-2 transfected. It is filed as cell-based. As to conditions: Homo sapiens, read-out: U2OS Pim2_Cell_IC50.
Experiment [2] deals with Pim-1 stably transfected U2OS human osteogenic sarcoma line. In words: Pim cell assay U2OS (phospho-BAD normalized against total BAD), Pim-1 transfected. The format is cell-based. To be noted: Homo sapiens, U2OS.
In experiment [3] the target is full length recombinant Pim-2 (Homo sapiens (Human), UniProt Q9P1W9). In words: Pim enzyme assay (HTRF, phosphorylation of biotinylated-BAD (S112) peptide), Pim-2. It is filed as biochemical. As to conditions: read-out: Pim2_IC50. For orientation: TR-FRET usually uses a lanthanide donor and a delayed reading to cut background.
Sequence of full length recombinant Pim-2 (Q9P1W9 whole entry): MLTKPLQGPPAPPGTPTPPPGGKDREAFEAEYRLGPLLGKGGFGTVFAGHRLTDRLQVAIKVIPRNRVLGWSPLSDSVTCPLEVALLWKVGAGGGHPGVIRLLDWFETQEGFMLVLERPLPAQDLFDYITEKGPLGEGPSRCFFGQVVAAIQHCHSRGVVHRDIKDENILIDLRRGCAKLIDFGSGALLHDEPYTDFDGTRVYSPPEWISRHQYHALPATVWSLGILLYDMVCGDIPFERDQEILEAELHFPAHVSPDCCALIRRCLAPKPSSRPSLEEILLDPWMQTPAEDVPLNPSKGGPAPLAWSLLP
Experiment [4] addresses full length recombinant Pim-1 (Homo sapiens (Human), UniProt P11309). The experiment can be described thus: Pim enzyme assay (HTRF, phosphorylation of biotinylated-BAD (S112) peptide), Pim-1. The format is biochemical. As to conditions: read-out: Pim_1_IC50.
The target of experiment [5] is full length recombinant Pim-3 (Homo sapiens (Human), UniProt Q86V86). The experiment can be described thus: Pim enzyme assay (HTRF, phosphorylation of biotinylated-BAD (S112) peptide), Pim-3. It is filed as biochemical. As to conditions: read-out: Pim3 IC50. The procedure, abridged:
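IC50 values were fitted with a 4-parameter logistic model to percent-of-control HTRF signal (Eu anti-phospho-BAD S112 antibody/streptavidin-APC). Reactions used full-length Pim-3 and biotin-BAD (S112) peptide, ran 1 h 30 min at RT (22 °C) in Hepes pH 7.0 buffer with BSA and DTT, and were stopped by 3 mM EDTA.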

Where [6] appears, read: read-out: U2OS Pim1_Cell_IC50, U2OS cells, Pim-1 transfected.

Sequence of full length recombinant Pim-1 (P11309 whole entry): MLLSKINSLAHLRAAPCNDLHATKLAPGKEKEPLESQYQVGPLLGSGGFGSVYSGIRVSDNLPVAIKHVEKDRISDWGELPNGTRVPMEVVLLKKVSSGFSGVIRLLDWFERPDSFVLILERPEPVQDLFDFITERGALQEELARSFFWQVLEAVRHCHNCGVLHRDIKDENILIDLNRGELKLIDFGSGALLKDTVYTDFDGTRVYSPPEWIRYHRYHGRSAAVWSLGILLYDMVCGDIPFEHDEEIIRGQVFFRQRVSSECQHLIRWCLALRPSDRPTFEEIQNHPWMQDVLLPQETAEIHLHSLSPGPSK

For `CCN(CC)c1cncc(-c2c[nH]c3ccc(-c4nnc(N)s4)cc23)n1` [Example 154, 6-(5-(5-amino-1,3,4-thiadiazol-2-yl)-1H-indol-3-yl)-N,N-diethyl-2-pyrazinamine], the IC50 worked out at 2300 nM in experiment [1] (U2OS cells, Pim-2 transfected); 43.4 nM in experiment [2] (setting [6]); 20 nM in experiment [3] (Pim-2 enzyme assay); 2 nM in experiment [4] (Pim-1 enzyme assay); 1.45 nM in experiment [5] (Pim-3 enzyme assay).
Consider `CC(C)Oc1cccc(-c2c[nH]c3ccc(-c4nnc(N5CC[C@H](N)C5)s4)cc23)n1` [Example 34, (S)-1-(5-(3-(6-Isopropoxypyridin-2-yl)-1H-indol-5-yl)-1,3,4-thiadiazol-2-yl)pyrrolidin-3-amine 2,2,2-trifluoroacetate], for which the IC50 is over 31600 nM in experiment [1] (U2OS); 280 nM in experiment [2] (setting [6]); 24.8 nM in experiment [3]; 10.5 nM in experiment [4] (Pim-1 enzyme assay); 1.51 nM in experiment [5].
As to `Nc1nnc(-c2ccc3[nH]cc(-c4cccc(N5CCCC5=O)n4)c3c2)s1` [Example 166, 1-(6-(5-(5-amino-1,3,4-thiadiazol-2-yl)-1H-indol-3-yl)-2-pyridinyl)-2-pyrrolidinone], the IC50 in experiment [1] (U2OS cells, Pim-2 transfected) was over 31600 nM; in experiment [2] (read-out: U2OS Pim1_Cell_IC50), over 31600 nM; in experiment [3] (Pim-2 enzyme assay), 38.3 nM; in experiment [4] (Pim-1 enzyme assay), 18.2 nM; in experiment [5] (Pim-3 enzyme assay) it was 5.33 nM.
For the compound `CCCOc1cccc(-c2c[nH]c3ccc(-c4nnc(N)s4)cc23)n1` [Example 165, 5-(3-(6-propoxy-2-pyridinyl)-1H-indol-5-yl)-1,3,4-thiadiazol-2-amine], the IC50 in experiment [1] (U2OS cells, Pim-2 transfected) was determined as 4230 nM; in experiment [2] (read-out: U2OS Pim1_Cell_IC50) it was 231 nM; in experiment [3] (Pim-2 enzyme assay), 35.3 nM; in experiment [4] (Pim-1 enzyme assay), 15.2 nM; in experiment [5] (Pim-3 enzyme assay) it was 5.73 nM.
`Nc1nnc(-c2ccc3[nH]cc(-c4cncc(N5CCC(F)(F)C5)n4)c3c2)o1` [Example 88, 5-(3-(6-(3,3-difluoro-1-pyrrolidinyl)-2-pyrazinyl)-1H-indol-5-yl)-1,3,4-oxadiazol-2-amine]: the IC50 amounted to 464 nM in experiment [1] (U2OS cells, Pim-2 transfected); 40.7 nM in experiment [2] (read-out: U2OS Pim1_Cell_IC50); 6.43 nM in experiment [3] (Pim-2 enzyme assay); 1.92 nM in experiment [4] (Pim-1 enzyme assay); 1.6 nM in experiment [5] (Pim-3 enzyme assay).
As for `Nc1nnc(-c2ccc3[nH]cc(-c4ccccc4F)c3c2)s1` [Example 136, 5-(3-(2-fluorophenyl)-1H-indol-5-yl)-1,3,4-thiadiazol-2-amine], the IC50 is over 31600 nM in experiment [1] (U2OS cells, Pim-2 transfected); 3410 nM in experiment [2] (setting [6]); 60 nM in experiment [3] (Pim-2 enzyme assay); 67.3 nM in experiment [4] (Pim-1 enzyme assay); 30.9 nM in experiment [5] (Pim-3 enzyme assay).
Turning to `Nc1nnc(-c2ccc3[nH]cc(-c4cccc(-c5ccc(Cl)cc5)n4)c3c2)s1` [Example 31, 5-(3-(6-(4-chlorophenyl)pyridin-2-yl)-1H-indol-5-yl)-1,3,4-thiadiazol-2-amine], the IC50 in experiment [1] (U2OS cells, Pim-2 transfected) was determined as 28300 nM; in experiment [2] (setting [6]), 1090 nM; in experiment [3], 75.5 nM; in experiment [4], 37.4 nM; in experiment [5] it was 13.6 nM.
With `CC(Oc1cncc(-c2c[nH]c3ccc(-c4nnc(N)s4)cc23)n1)C(F)(F)F` (centres unmarked) [Example 211, 5-(3-(6-(2,2,2-trifluoro-1-methylethoxy)-2-pyrazinyl)-1H-indol-5-yl)-1,3,4-thiadiazol-2-amine], the IC50 is 2800 nM in experiment [1] (U2OS cells, Pim-2 transfected); 192 nM in experiment [2] (read-out: U2OS Pim1_Cell_IC50); 53.7 nM in experiment [3] (Pim-2 enzyme assay); 24.5 nM in experiment [4] (Pim-1 enzyme assay); 13.2 nM in experiment [5] (Pim-3 enzyme assay).
Regarding `CC1CCCCN1c1cncc(-c2c[nH]c3ccc(-c4nnc(N)o4)cc23)n1` (centres unmarked) [Example 1, 5-(3-(6-(2-methylpiperidin-1-yl)pyrazin-2-yl)-1H-indol-5-yl)-1,3,4-oxadiazol-2-amine], the IC50 in experiment [1] (U2OS cells, Pim-2 transfected) stood at 435 nM; in experiment [2] (setting [6]), 11.9 nM; in experiment [3] (Pim-2 enzyme assay) it was 2.06 nM; in experiment [4] (Pim-1 enzyme assay), 0.714 nM; in experiment [5] (Pim-3 enzyme assay) it was 1.06 nM.
For the compound `Nc1nnc(-c2ccc3[nH]cc(-c4nccc(Nc5ccccc5)n4)c3c2)o1` [Example 108, 2-(5-(5-amino-1,3,4-oxadiazol-2-yl)-1H-indol-3-yl)-N-phenyl-4-pyrimidinamine], the IC50 turned out to be 1410 nM in experiment [1] (U2OS cells, Pim-2 transfected); 711 nM in experiment [2] (read-out: U2OS Pim1_Cell_IC50); 3.1 nM in experiment [3] (Pim-2 enzyme assay); 9.41 nM in experiment [4] (Pim-1 enzyme assay); 2.07 nM in experiment [5] (Pim-3 enzyme assay).
Taken in the same sequence, the figures for `C[C@H]1CCCN(c2ccnc(-c3c[nH]c4ccc(-c5nnc(N)o5)cc34)n2)C1` (stereo in doubt) [Example 105, 5-(3-(4-(3-methyl-1-piperidinyl)-2-pyrimidinyl)-1H-indol-5-yl)-1,3,4-oxadiazol-2-amine] were 920 nM, 104 nM, 4.81 nM, 5.5 nM and 1.78 nM.
Taken in the same sequence, the figures for `CN1CCN(c2cccc(-c3c[nH]c4ccc(-c5nnc(N)o5)cc34)n2)CC1` [Example 75, 5-(3-(6-(4-methyl-1-piperazinyl)-2-pyridinyl)-1H-indol-5-yl)-1,3,4-oxadiazol-2-amine] were 2350 nM, 173 nM, 6.87 nM, 3.82 nM and 2.54 nM.
Turning to `Nc1nnc(-c2ccc3[nH]cc(-c4cncc(NC5CCCC5)n4)c3c2)s1` [Example 17, 5-(3-(6-(cyclopentylamino)pyrazin-2-yl)-1H-indol-5-yl)-1,3,4-thiadiazol-2-amine 2,2,2-trifluoroacetate], the IC50 was 1220 nM in experiment [1] (U2OS); 56.6 nM in experiment [2] (read-out: U2OS Pim1_Cell_IC50); 5.92 nM in experiment [3]; 1.5 nM in experiment [4]; 0.763 nM in experiment [5].
Take `Nc1nnc(-c2ccc3[nH]cc(-c4cccc(NCC5CC5)n4)c3c2)s1` [Example 204, 6-(5-(5-amino-1,3,4-thiadiazol-2-yl)-1H-indol-3-yl)-N-(cyclopropylmethyl)-2-pyridinamine]: the IC50 in experiment [1] (U2OS cells, Pim-2 transfected) was found to be 7720 nM; in experiment [2] (read-out: U2OS Pim1_Cell_IC50), 466 nM; in experiment [3] (Pim-2 enzyme assay), 145 nM; in experiment [4] (Pim-1 enzyme assay), 82.9 nM; in experiment [5] (Pim-3 enzyme assay), 18.2 nM.
Turning to `CNc1nnc(-c2ccc3[nH]cc(-c4cncc(N5CCCCC5)n4)c3c2)s1` [Example 227, N-methyl-5-(3-(6-(1-piperidinyl)-2-pyrazinyl)-1H-indol-5-yl)-1,3,4-thiadiazol-2-amine], the IC50 was 9950 nM in experiment [1] (U2OS cells, Pim-2 transfected); 121 nM in experiment [2] (read-out: U2OS Pim1_Cell_IC50); 41 nM in experiment [3] (Pim-2 enzyme assay); 5.07 nM in experiment [4] (Pim-1 enzyme assay); 1.42 nM in experiment [5] (Pim-3 enzyme assay).
On to `CNc1nnc(-c2ccc3[nH]cc(-c4cccc(N5CCCC5=O)n4)c3c2)s1` [Example 229, 1-(6-(5-(5-(methylamino)-1,3,4-thiadiazol-2-yl)-1H-indol-3-yl)-2-pyridinyl)-2-pyrrolidinone], for which the IC50 in experiment [1] (U2OS cells, Pim-2 transfected) was over 31600 nM; in experiment [2] (read-out: U2OS Pim1_Cell_IC50), 312 nM; in experiment [3] (Pim-2 enzyme assay), 80.4 nM; in experiment [4] (Pim-1 enzyme assay), 28.8 nM; in experiment [5] (Pim-3 enzyme assay), 6.73 nM.
The like results for `CN(C)[C@H]1CCCN(c2ccnc(-c3c[nH]c4ccc(-c5nnc(N)o5)cc34)n2)C1` (stereo in doubt) [Example 107, 1-(2-(5-(5-amino-1,3,4-oxadiazol-2-yl)-1H-indol-3-yl)-4-pyrimidinyl)-N,N-dimethyl-3-piperidinamine] were, in that order, over 31600 nM, 3860 nM, 3.24 nM, 5.98 nM and 3.74 nM.
Consider `Nc1nnc(-c2ccc3[nH]cc(-c4cncc(OC5CCCC5)n4)c3c2)s1` [Example 160, 5-(3-(6-(cyclopentyloxy)-2-pyrazinyl)-1H-indol-5-yl)-1,3,4-thiadiazol-2-amine], for which the IC50 was 6540 nM in experiment [1] (U2OS cells, Pim-2 transfected); 176 nM in experiment [2] (setting [6]); 24.6 nM in experiment [3] (Pim-2 enzyme assay); 10.5 nM in experiment [4] (Pim-1 enzyme assay); 10.7 nM in experiment [5] (Pim-3 enzyme assay).
On to `Nc1nnc(-c2ccc3[nH]cc(-c4ccc5nccnc5c4)c3c2)s1` [Example 151, 5-(3-(6-quinoxalinyl)-1H-indol-5-yl)-1,3,4-thiadiazol-2-amine], for which the IC50 in experiment [1] (U2OS cells, Pim-2 transfected) was over 31600 nM; in experiment [2] (read-out: U2OS Pim1_Cell_IC50), 925 nM; in experiment [3] (Pim-2 enzyme assay), 144 nM; in experiment [4] (Pim-1 enzyme assay), 103 nM; in experiment [5] (Pim-3 enzyme assay) it was 17.5 nM.
The like results for `Nc1nnc(-c2ccc3[nH]cc(-c4cccc(-n5cccn5)n4)c3c2)s1` [Example 180, 5-(3-(6-(1H-pyrazol-1-yl)-2-pyridinyl)-1H-indol-5-yl)-1,3,4-thiadiazol-2-amine] were, in that order, 5460 nM, 926 nM, 49.5 nM, 82.1 nM and 26.6 nM.
On to `CN1CCN(c2cccc(-c3c[nH]c4ccc(-c5nnc(N)s5)cc34)n2)CC1` [Example 13, 5-(3-(6-(4-methylpiperazin-1-yl)pyridin-2-yl)-1H-indol-5-yl)-1,3,4-thiadiazol-2-amine], for which the IC50 was 3010 nM in experiment [1] (U2OS); 198 nM in experiment [2] (setting [6]); 10.9 nM in experiment [3]; 2.02 nM in experiment [4]; 0.625 nM in experiment [5].
`Nc1nnc(-c2ccc3[nH]cc(-c4nccc(N5CCOCC5)n4)c3c2)s1` [Example 11, 5-(3-(4-morpholinopyrimidin-2-yl)-1H-indol-5-yl)-1,3,4-thiadiazol-2-amine]: the IC50 in experiment [1] (U2OS cells, Pim-2 transfected) was 2200 nM; in experiment [2] (read-out: U2OS Pim1_Cell_IC50) it was 911 nM; in experiment [3] (Pim-2 enzyme assay), 8.61 nM; in experiment [4] (Pim-1 enzyme assay), 19.7 nM; in experiment [5] (Pim-3 enzyme assay) it was 7.69 nM.
